Here are results for 12 molecules from ChEMBL document CHEMBL1201862, “PubChem BioAssay data set” (2004).

Among the test systems are A498; SNB-19; COLO 205; NCI-H460; M14; KM12; MDA-MB-231; CCRF-CEM; HCT-116; OVCAR-3; SK-MEL-5; DU-145; NCI-H23; OVCAR-5; NCI/ADR-RES; SNB-75; BT-549; MCF7.
Holding throughout (test): inhibition of tumour cell growth, NCI panel, 48 h

SMILES strings stand for the structures. Values joined by “and” are separate entries in the source; they are usually repeats but may differ in a detail not shown here. Equal entries are not always repeated.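 1) Cells in 96-well plates. 2) Compound, 48 h, 5 concentrations. 3) Linear interpolation between surrounding doses. 4) Unreached endpoint = highest concentration. GI50: concentration for 50% inhibition of growth.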 Active and inactive are the calls of the source. Rule as the data show it: active = GI50 up to about 1.1 µM and inactive = higher.

In the case of `COC(=O)c1c(C(=O)OC)c2ccccn2c1-c1cc(C)cc2c1C(=O)C=CC2=O`, the GI50 in the test on A498 is 12.8 µM (inactive); in the test on SNB-19, 13.7 µM (inactive); in the test on COLO 205, 5.22 µM (inactive); in the test with NCI-H460 it was > 10 µM (inactive); with M14, 9.48 µM (inactive); with KM12 it was > 10 µM (inactive). In addition, the GI50 with MDA-MB-231 is 10.4 µM (inactive); with CCRF-CEM, 0.796 µM (active); with HCT-116, 10.7 µM (inactive); with OVCAR-3, 11 µM (inactive); in the test with SK-MEL-5, 12.4 µM (inactive); in the test on DU-145, 14 µM (inactive). Further, the GI50 in the test on NCI-H23 was 8.09 µM (inactive); with OVCAR-5, 12.1 µM (inactive); in the test on NCI/ADR-RES it was 15.6 µM (inactive); with SNB-75, 16.4 µM (inactive).
As for `CCOc1cccc(/C=N/N=C2\C(=O)Nc3c(Cl)cc(Cl)cc32)c1O`, the GI50 is 36.6 µM (inactive) in the test with A498; > 100 µM (inactive) in the test with SNB-19; 39.6 µM (inactive) in the test on BT-549; > 100 µM (inactive) with COLO 205; 37 µM (inactive) in the test on NCI-H460; 73.3 µM (inactive) in the test with M14. The GI50 was > 100 µM (inactive) in the test with KM12; 37.2 µM (inactive) in the test with MDA-MB-231; 31.6 µM (inactive) with CCRF-CEM; 74.3 µM (inactive) in the test with HCT-116; 36.9 µM (inactive) in the test with OVCAR-3; 64.4 µM (inactive) in the test on SK-MEL-5. Also, the GI50 in the test with NCI-H23 is 50.1 µM (inactive); in the test with OVCAR-5, > 100 µM (inactive); in the test with MCF7 it was 57.5 µM (inactive); in the test with NCI/ADR-RES, 33.3 µM (inactive); with SNB-75, 40.9 µM (inactive).
On to `CCc1ccc2oc(-c3cc(O)c(-c4nc5cc(CC)ccc5o4)cc3O)nc2c1`, for which the GI50 in the test on A498, in the test with SNB-19, in the test on COLO 205, in the test with NCI-H460, in the test on M14 and in the test on MDA-MB-231 was > 100 µM (inactive) in each case. In addition, the GI50 in the test with CCRF-CEM, with HCT-116, with SK-MEL-5, in the test with DU-145, with NCI-H23 and with OVCAR-5 was > 100 µM (inactive) each time. The figures for the GI50 in the test on MCF7, with NCI/ADR-RES and in the test with SNB-75 were > 100 µM (inactive), > 100 µM (inactive) and 86.5 µM (inactive), respectively.
For `COc1ccccc1/C=C(/C)[N+](=O)[O-]`, the GI50 with A498 was 7.13 µM (inactive) and 5.14 µM (inactive); in the test with SNB-19 it was 4.26 µM (inactive) and 2.33 µM (inactive); in the test with COLO 205 it was 3.05 µM (inactive) and 1.83 µM (inactive); in the test on M14, 1.37 µM (inactive) and 1.21 µM (inactive); in the test on KM12, 2.96 µM (inactive) and 1.74 µM (inactive); in the test on MDA-MB-231 it was 3.43 µM (inactive) and 4.86 µM (inactive). The GI50 in the test with OVCAR-3 is 1.32 µM (inactive) and 1.09 µM (active); in the test on SK-MEL-5, 2.07 µM (inactive) and 1.85 µM (inactive); in the test on DU-145, 1.02 µM (active) and 1.04 µM (active); in the test on NCI-H23, 2.15 µM (inactive) and 2.2 µM (inactive); in the test on NCI/ADR-RES it was 3.44 µM (inactive) and 2.65 µM (inactive).
Consider `ClCCN1CCO/C1=N/c1ccc2c(c1)CCCC2`, for which the GI50 was 6.92 µM (inactive) in the test on A498; 5.53 µM (inactive) in the test on SNB-19; 12.2 µM (inactive) with COLO 205; 18.8 µM (inactive) with NCI-H460; 13.3 µM (inactive) in the test on M14; 17.9 µM (inactive) with KM12. For the same molecule, the GI50 in the test with MDA-MB-231 was 13.4 µM (inactive); with CCRF-CEM it was 11.3 µM (inactive); in the test on HCT-116, 13.4 µM (inactive); with OVCAR-3, 13 µM (inactive); in the test on SK-MEL-5, 1.96 µM (inactive); with DU-145, 15.7 µM (inactive). The GI50 with NCI-H23 was 8.95 µM (inactive); in the test with OVCAR-5, 17.3 µM (inactive); in the test on NCI/ADR-RES, 18.1 µM (inactive); with SNB-75, 13.3 µM (inactive).
For the molecule `CC(C)(C)C1=C(Br)C(F)(C(C)(C)C)OP1(=O)c1ccccc1` (centres undefined), the GI50 in the test with A498 is 24.8 µM (inactive); in the test on SNB-19, 16.4 µM (inactive); with COLO 205, 16 µM (inactive); with NCI-H460, 19.1 µM (inactive); with M14 it was 14.8 µM (inactive); with KM12 it was 18.9 µM (inactive). Besides, the GI50 with HCT-116 is 16.7 µM (inactive); in the test on OVCAR-3, 15.5 µM (inactive); in the test with SK-MEL-5, 11 µM (inactive); with DU-145, 18 µM (inactive); in the test on NCI-H23, 19.5 µM (inactive); in the test on OVCAR-5, 20.2 µM (inactive). For the same molecule, the figures for the GI50 in the test with MCF7, in the test with NCI/ADR-RES and in the test on SNB-75 were 15.8 µM (inactive), 16.4 µM (inactive) and 17 µM (inactive), respectively.
In the case of `COC(=O)c1cc2c(c3c1CC(Cc1ccccc1)C3=O)CCC2` (centres undefined), the GI50 was > 100 µM (inactive) in the test on A498; > 100 µM (inactive) in the test on SNB-19; > 100 µM (inactive) with COLO 205; 71.1 µM (inactive) with NCI-H460; 93.3 µM (inactive) with M14; 18.4 µM (inactive) in the test with KM12. Moreover, the GI50 with MDA-MB-231 was 62.2 µM (inactive); in the test on CCRF-CEM, 36.5 µM (inactive); in the test on HCT-116, > 100 µM (inactive); in the test on OVCAR-3 it was > 100 µM (inactive); in the test on SK-MEL-5, 64.4 µM (inactive); with DU-145 it was 61.4 µM (inactive). Further, the GI50 was 64.4 µM (inactive) with NCI-H23; > 100 µM (inactive) in the test on OVCAR-5; 69.7 µM (inactive) in the test on MCF7; > 100 µM (inactive) in the test on NCI/ADR-RES; 40.9 µM (inactive) in the test with SNB-75.
With `CS(=O)(=O)c1nc(-c2cc3c(c(S(C)(=O)=O)n2)CCC3)cc2c1CCCC2`, the GI50 in the test with SNB-19 was 32.4 µM (inactive); in the test with BT-549, 32.1 µM (inactive); in the test on COLO 205, > 100 µM (inactive); with M14, > 100 µM (inactive); in the test on KM12 it was > 100 µM (inactive); in the test on MDA-MB-231 it was 38.9 µM (inactive). The GI50 in the test with CCRF-CEM was > 100 µM (inactive); in the test with HCT-116, > 100 µM (inactive); in the test on OVCAR-3 it was > 100 µM (inactive); in the test with SK-MEL-5, > 100 µM (inactive); in the test with DU-145, > 100 µM (inactive); with NCI-H23, 58.3 µM (inactive). Besides, the results for the GI50 with OVCAR-5, in the test with NCI/ADR-RES and in the test with SNB-75 were > 100 µM (inactive), 48.6 µM (inactive) and 8.63 µM (inactive), respectively.
With `CC(C)=CCC[C@@H](C)C1=C(O)C(=O)C(C)=C(c2c(I)c(=O)n(C)c(=O)n2C)C1=O`, the GI50 with A498, in the test with SNB-19, with BT-549, in the test with COLO 205, in the test on NCI-H460 and in the test with M14 was > 100 µM (inactive) each time. For the same molecule, the GI50 with KM12, in the test with CCRF-CEM, in the test on HCT-116, with OVCAR-3, in the test with DU-145 and in the test on NCI-H23 was > 100 µM (inactive) each time. Further, the GI50 in the test with OVCAR-5, in the test with MCF7, with NCI/ADR-RES and with SNB-75 was > 100 µM (inactive) each time.
`CC(C)(C)C(=O)Nc1c(C=O)ccc2[nH]cnc12`: the GI50 in the test with A498, in the test with SNB-19, with BT-549, with COLO 205, in the test on NCI-H460 and in the test on M14 was > 100 µM (inactive) throughout. Besides, the GI50 is 80.4 µM (inactive) in the test on KM12; > 100 µM (inactive) in the test on MDA-MB-231; 33.3 µM (inactive) in the test with CCRF-CEM; > 100 µM (inactive) in the test with HCT-116; 80.9 µM (inactive) with OVCAR-3; 78.7 µM (inactive) with SK-MEL-5. For the same molecule, the GI50 was > 100 µM (inactive) in the test with NCI-H23; > 100 µM (inactive) with OVCAR-5; 60.1 µM (inactive) in the test on MCF7; > 100 µM (inactive) in the test on NCI/ADR-RES; > 100 µM (inactive) in the test on SNB-75.
For `CN1C(=O)c2ccccc2NC(=O)C12O[C@@H]2c1cccc(O)c1` (some centres undefined), the GI50 with A498, in the test with SNB-19, in the test on COLO 205, in the test on NCI-H460, with M14 and with KM12 was > 100 µM (inactive) in each case. Besides, the GI50 in the test on MDA-MB-231, in the test on CCRF-CEM, in the test with HCT-116, in the test on OVCAR-3, in the test with SK-MEL-5 and in the test with DU-145 was > 100 µM (inactive) in each case. Moreover, the GI50 in the test with NCI-H23 is > 100 µM (inactive); in the test with OVCAR-5, 95.9 µM (inactive); in the test with MCF7, > 100 µM (inactive); with NCI/ADR-RES, > 100 µM (inactive); in the test with SNB-75 it was > 100 µM (inactive).
For the molecule `Cc1cccc2c1CC1(C2)Cc2c(C)cccc2C1=O` (centres undefined), the GI50 in the test with A498 is 32.1 µM (inactive); in the test with SNB-19, 49.3 µM (inactive); in the test on COLO 205, 15.6 µM (inactive); in the test on NCI-H460 it was 22.7 µM (inactive); in the test with M14 it was 26.6 µM (inactive); in the test on KM12 it was 25.2 µM (inactive). Also, the GI50 with MDA-MB-231 is 23.6 µM (inactive); in the test with CCRF-CEM, 21.3 µM (inactive); in the test on HCT-116, 16.5 µM (inactive); in the test on OVCAR-3, 23.9 µM (inactive); in the test on SK-MEL-5, 18.2 µM (inactive); in the test with DU-145, 18.8 µM (inactive). Besides, the GI50 in the test on NCI-H23 was 31.4 µM (inactive); in the test on OVCAR-5, 28.7 µM (inactive); in the test with MCF7, 27.2 µM (inactive); with NCI/ADR-RES, 38.1 µM (inactive); with SNB-75 it was 18.6 µM (inactive).
